Experimental data published in patent publication US5776962A, “Lactone compounds for treating patient with precancerous lesions” (priority 1995, dated 1998).
Entries after “also recorded” stand apart in the source; their conditions may differ. Where two headings read alike, the source gives them in different places. Each block holds one compound with its values, some of them ahead of it.

Assays:
[1] = system: HT-29 human colonic adenocarcinoma cells; assay: Sulforhodamine B Assay, tumor cell growth inhibition, HT-29; type: cell-based; conditions: for SELECTIVITY INDEX (HT-29 IC50 / PGE2 IC50): ratio of HT-29 IC50 to PGE2 IC50
Protocol: The compounds of this invention were assayed for their effect on various cell lines representative of precancerous lesions to ascertain the degree of tumor growth inhibition following treatment with compounds of this invention. The cell lines employed for these experiments were well characterized, and are used by the United States National Cancer Institute in their screening program for new anti-cancer drugs. Growth inhibition of this cell line is thought to be indicative of a benefit on precancerous lesions and neoplasms.
Tumor cell cytotoxicity was assessed using the Sulforhodamine B Assay. In this assay, tumor cells were plated in 96-well plates and treated with drug-containing media for seven days (continuous exposure). At the end of the exposure period, the cells were fixed and stained with sulforhodamine B (a pink fluorescent dye). The dye was then solubilized, and the optical density of the resulting pink solution determined on a 96-well plate reader. The mean dye intensity of the treated wells was then divided by the mean dye intensity in the control wells (6 wells of each) to determine the effect of the drug on the cells. Dye intensity is proportional to the number of cells or amount of protein per well. The resultant "percent of control" value then represents the degree of growth inhibition caused by the drug.
For each experiment, an IC50 value was determined and used for comparative purposes. This value is equivalent to the concentration of drug needed to inhibit tumor cell growth by 50%. IC50 values were obtained graphically by connecting the mean values for each drug concentration tested. Each experiment included at least six wells per drug concentration. Concentration was plotted on a log scale on the X-axis.

[2] = system: prostaglandin E2 (PGE2) production by differentiated HL-60 cells (anti-PG synthetase activity); assay: Inhibition of prostaglandin E2 (PGE2) production in differentiated HL-60 cells after A23187 stimulation (EIA); type: cell-based, human; conditions: for IC50: Table III, differentiated HL-60, A23187 (5×10^-6 M) stimulation, read-out: (Anti-PG Synthetase activity) PGE2 I.C.50
Protocol: Compounds of this invention, as well as several others (see Table II below), were evaluated to determine whether they inhibited the production of prostaglandin E2 (PGE2), according to the procedure below. […] Secreted […] is measured using an enzyme immunoassay (EIA) kit.
Specifically, HL-60 is a human promyelocytic cell line which may be differentiated in mature granulocytes in the presence of compounds such as dimethyl sulfoxide (DMSO). These cells are obtained from the American Type Culture Collection (ATCC:CCL240).
The differentiated HL-60 cells (3×10^6 cells/ml) are incubated for 15 min at 37° C. in the presence of the compounds listed in Table II at the desired concentration. Cells are then stimulated by A23187 (5×10^-6 M) for 15 min. Secreted PGE2 into the external medium is measured by EIA using a commercially available EIA kit.
The quantity of PGE2 secreted is expressed in ng/10^6 cells using a standard curve. Data are converted using a curve fitting of the four parameter logistic equation: [formula] […] The IC50 values are determined using Hill equation.

prostaglandin synthesis = conditions: background; cited from earlier work
[3] = background; prophylactic use / conventional NSAIDs; cited from earlier work
polyps = conditions: patients; background; cited from earlier work
[4] = background; cited from earlier work
[5] = Homo sapiens, Table II, cell line HT-29, read-out: IC50
[6] = Homo sapiens, Table III, HT-29, read-out: (Anti-proliferative activity) HT-29 I.C.50
[7] = Table II, cell line HT-29, read-out: IC50
[8] = Table III, HT-29, read-out: (Anti-proliferative activity) HT-29 I.C.50

Compound: CC12OC(=O)C=C1c1cc(F)ccc1/C2=C\c1ccc(S(C)(=O)=O)cc1 (racemic) [Example 3, rac-(E)-1-(2'-Buten-1',4'-olido)-[3',4':1,2]-6-fluoro-2-methyl-3-(p-methylsulfonylbenzylidene)-indan]
anti-PG-synthetase / anti-prostaglandin activity (in words) [2]: essentially lacking anti-prostaglandin activity at therapeutic concentrations | anti-proliferative activity (in words) [1]: outstanding anti-proliferative activity

Compound: CC12OC(=O)CC1(O)c1cc(F)ccc1/C2=C\c1ccc(S(C)(=O)=O)cc1 (racemic) [Example 11, rac-threo-(E)-1-Hydroxy-1-(butan-1',4'-olido)-[3',4':1,2]-6-fluoro-2-methyl-3-(p-methylsulfonylbenzylidene)-indan]
IC50 ([1]; Homo sapiens, Table II, cell line HT-29 p 135, read-out: IC50): 100000 nM

Compound: CC1=C(CC(=O)O)c2cc(F)ccc2/C1=C\c1ccc(S(C)(=O)=O)cc1 [Sulfone, reference compound]
inhibition of prostaglandin synthesis (in words) (prostaglandin synthesis): inactive as an inhibitor of prostaglandin synthesis | SELECTIVITY INDEX (HT-29 IC50 / PGE2 IC50) ([1]; Table III): 1.19

Compound: CSc1ccc(/C=C2/C(C)=C(CC(=O)O)c3cc(F)ccc32)cc1 [Sulindac Sulfide, reference compound]
inhibition of prostaglandin synthesis (in words) (prostaglandin synthesis): active moiety as a prostaglandin inhibitor | side effects (in words) [3]: associated with the side effects of conventional NSAIDs | anti-PG-synthetase / anti-prostaglandin activity (in words) [2]: high degree of anti-PG-synthetase activity | inhibition at 10 µM ([2]; Homo sapiens, HL-60, read-out: inhibit PGE2 production): 100% | anti-proliferative activity (in words) [1]: good anti-proliferative activity

Compound: CC1=C(CC(=O)O)c2cc(F)ccc2/C1=C\c1ccc([S+](C)[O-])cc1 (centres unmarked) [Sulindac]
effect on polyps (in words) (polyps): Polyps virtually disappear | metabolism (in words) [4]: converted by liver enzymes to the corresponding sulfide; also recorded: metabolized to sulfone compound

Compound: rac-ribo-(E)-1-Triazolo-[2',3':1",3"]-1-(butan-1',4'-olido)-[3',4':1,2]-6-fluoro-2-methyl-3-(methylsulfonylbenzylidene)-indan [Example 29]
IC50 [2]: 1500 nM | IC50 [1, 7]: 2400 nM | IC50 [1, 8]: 2400 nM | SELECTIVITY INDEX (HT-29 IC50 / PGE2 IC50) ([1]; Table III): 1.6

Compound: rac-threo-(E)-1-(butan-1',4'-olido)-[3',4':1,2]-6-fluoro-2-methyl-3-(p-methylsulfonylbenzylidene)-1S-indanyl-glutathione [Example 34]
IC50 [2]: > 100000 nM | IC50 [1, 7]: 3600 nM | IC50 [1, 8]: 3600 nM | SELECTIVITY INDEX (HT-29 IC50 / PGE2 IC50) ([1]; Table III): < 0.036

Compound: rac-threo-(E)-1-N,N-Diethylamino-1-(butan-1',4'-olido)-[3',4':1,2]-6-fluoro-2-methyl-3-(p-methylsulfonylbenzylidene)-indan [Example 30]
IC50 [2]: > 100000 nM | IC50 [1, 7]: 350 nM | IC50 [1, 8]: 350 nM | SELECTIVITY INDEX (HT-29 IC50 / PGE2 IC50) ([1]; Table III): < 0.0035

Continued, in another order:

IC50 [1, 5]: 2100 nM
Compound: CC12OC(=O)CC1(SC[C@H](N)C(=O)O)c1cc(F)ccc1/C2=C\c1ccc(S(C)(=O)=O)cc1 (mixture of isomers) [Example 32, rac-threo-(E)-1-(butan-1',4'-olido)-[3',4':1,2]-6-fluoro-2-methyl-3-(p-methylsulfonylbenzylidene)-1S-indanyl-L-cysteine]

IC50 [1, 5]: 30000 nM
Compound: CC(=O)N[C@@H](CSC12CC(=O)OC1(C)/C(=C/c1ccc(S(C)(=O)=O)cc1)c1ccc(F)cc12)C(=O)O (mixture of isomers) [Example 33, rac-threo-(E)-1-(butan-1',4'-olido)-[3',4':1,2]-6-fluoro-2-methyl-3-(p-methylsulfonylbenzylidene)-1S-indanyl-N-acetylcysteine]

IC50 ([2]; Homo sapiens): > 100000 nM | IC50 [1, 6]: 430 nM
Compound: CCN(CC)CCSC12CC(=O)OC1(C)/C(=C/c1ccc(S(C)(=O)=O)cc1)c1ccc(F)cc12 (racemic) [Example 12, rac-threo-(E)-1-(N,N'-diethylaminoethanethio)-1-(butan-1',4'-olido)-[3',4':1,2]-6-fluoro-2-methyl-3-(p-methylsulfonylbenzylidene)-indan]
SELECTIVITY INDEX (HT-29 IC50 / PGE2 IC50) ([1]; Table III): < 0.0043

IC50 ([1]; Homo sapiens, Table II, cell line HT-29 p 136 (?), read-out: IC50): > 50000 nM
Compound: CC12OC(=O)CC1(C#N)c1cc(F)ccc1/C2=C\c1ccc(S(C)(=O)=O)cc1 (racemic) [Example 13, rac-threo-(E)-1-Cyano-1-(butan-1',4'-olido)-[3',4':1,2]-6-fluoro-2-methyl-3-(p-methylsulfonylbenzylidene)-indan]

IC50 [1, 5]: 340 nM
Compound: CC12OC(=O)C=C1c1cc(F)ccc1/C2=C\c1ccccc1 (racemic) [Example 27, rac-(E)-1-(2'-buten-1',4'-olido)-[3',4':1,2]-6-fluoro-2-methyl-3-benzylidene-indan]

IC50 [1, 5]: 280 nM
Compound: COc1cc(/C=C2\c3ccc(F)cc3C3=CC(=O)OC32C)cc(OC)c1OC (racemic) [Example 28, rac-(E)-1-(2'-buten-1',4'-olido)-[3',4':1,2]-6-fluoro-2-methyl-3-(3,4,5-trimethoxybenzylidene)-indan]

IC50 ([2]; Homo sapiens): 80 nM | IC50 [1, 5]: 2000 nM | IC50 [1, 6]: 2000 nM
Compound: COc1ccc2c(c1)C1=CC(=O)OC1(C)N2C(=O)c1ccc(Cl)cc1 (racemic) [Example 36, rac-3-(2'-Buten-1',4'-olido)-[3',4':3,2]-1-(4-chlorobenzoyl)-5-methoxy-2-methyl-2,3-dihydroindole]
SELECTIVITY INDEX (HT-29 IC50 / PGE2 IC50) ([1]; Table III): 25

IC50 [1, 5]: 50000 nM
Compound: C[C@@]12OC(=O)C[C@]1(SCC(=O)O)c1cc(F)ccc1/C2=C\c1ccc(S(C)(=O)=O)cc1 (relative stereo) [Example 31, rac-threo-(E)-1-(butan-1',4'-olido)-[3',4':1,2]-6-fluoro-2-methyl-3-(p-methylsulfonylbenzylidene)-1S-indanyl-mercaptoacetic acid]

IC50 [1, 5]: 29000 nM
Compound: CCN(CC)CCS[C@]12CC(=O)O[C@@]1(C)N(C(=O)c1ccc(Cl)cc1)c1ccc(OC)cc12 (relative stereo) [Example 37, rac-threo-3-(Butan-1',4'-olido)-[3',4':3,2]-3-(N,N'-diethylaminoethanethio)-1-(4-chlorobenzoyl)-5-methoxy-2-methyl-2,3-dihydroindole]
